Activity calls are given as the source filed them. No cut-off for these calls is given here.
How the values were obtained:
[1] = tested on: LoVo
[2] = tested on: MRC5; assay: Cytotoxicity against human MRC5 cells; type: cell-based; conditions: Homo sapiens, MRC5
[3] = Cytotoxicity against BRCA2-deficient human Capan1 cells; type: functional, cell-based, CAPAN-1; conditions: Homo sapiens, CAPAN-1
[4] = (§1) Oral bioavailability in Sprague-Dawley rat at 10 mg/kg by LC-MS/MS analysis; type: ADME, organism-based; conditions: Sprague-Dawley, in vivo
[5] = Volume of distribution at steady state in Sprague-Dawley rat at 5 mg/kg, iv by LC-MS/MS analysis; type: ADME, organism-based; conditions: in vivo, read-out: Vdss
[6] = (§2) Terminal eliminational half life in Sprague-Dawley rat at 5 mg/kg, iv by LC-MS/MS analysis; type: ADME, organism-based; conditions: Sprague-Dawley, in vivo, read-out: beta t1/2 (converted)
[7] = Clearance in Sprague-Dawley rat at 5 mg/kg, iv by LC-MS/MS analysis; type: ADME, organism-based; conditions: in vivo
[8] = Cmax in Sprague-Dawley rat at 10 mg/kg, po by LC-MS/MS analysis; type: ADME, organism-based; parameters: dose 10 mg/kg, route oral; conditions: in vivo
[9] = tested on: MX1; assay: Antitumor activity against BRCA1 deficient human MX1 cells xenografted in athymic nu/nu mouse at 100 mg/kg, po qd; type: functional, organism-based
[10] = (§3) AUC in Sprague-Dawley rat at 10 mg/kg, po by LC-MS/MS analysis; type: ADME, organism-based; conditions: Sprague-Dawley, in vivo
[11] = tested on: Mus musculus; assay: Decrease in PAR level in athymic nu/nu mouse xenografted with human MX1 cells at 100 mg/kg, po measured after 2 and 8 hrs by ELISA; type: functional, organism-based
[12] = tested on: LoVo; assay: cells; conditions: Homo sapiens, 120 h
[13] = tested on: Rattus norvegicus; assay: as §1; type: ADME, organism-based; conditions: in vivo
[14] = biological target: PARP 1, 2 and 3 (Homo sapiens, UniProt P09874+Q9Y6F1+Q9UGN5); assay: Inhibition of PARP in human LoVo cells assessed as inhibition of poly(ADP)-ribose polymerization for 30 mins by fluorescence assay; type: cell-based
[15] = biological target: Poly [ADP-ribose] polymerase 1 (Homo sapiens, UniProt P09874); assay: Inhibition of human PARP1 using [3H]NAD as substrate after 1 min by microplate scintillation counting analysis
[16] = tested on: Rattus norvegicus; assay: as §3; type: ADME, organism-based; conditions: in vivo
[17] = Cmax in beagle dog at 0.01 mg/kg, po; type: ADME, organism-based, Canis lupus familiaris; parameters: dose 0.01 mg/kg, route oral; conditions: in vivo
[18] = Volume of distribution at steady state in beagle dog at 0.025 mg/kg, iv; type: ADME, organism-based, Canis lupus familiaris; conditions: in vivo, read-out: Vdss
[19] = Half life in beagle dog at 0.01 mg/kg, po; type: ADME, organism-based, Canis lupus familiaris; conditions: in vivo
[20] = Apparent oral volume of distribution in beagle dog at 0.01 mg/kg, po; type: ADME, organism-based, Canis lupus familiaris; conditions: in vivo
[21] = AUC(0 to t) in beagle dog at 0.025 mg/kg, iv; type: ADME, organism-based, Canis lupus familiaris; conditions: in vivo
[22] = Tmax in beagle dog at 0.01 mg/kg, po; type: ADME, organism-based, Canis lupus familiaris; conditions: in vivo
[23] = Clearance in beagle dog at 0.025 mg/kg, iv; type: ADME, organism-based, Canis lupus familiaris; conditions: in vivo
[24] = Half life in beagle dog at 0.025 mg/kg, iv; type: ADME, organism-based, Canis lupus familiaris; conditions: in vivo
[25] = tested on: Canis familiaris; assay: AUC(0 to infinity) in beagle dog at 0.025 mg/kg, iv; type: ADME, organism-based, Canis lupus familiaris; parameters: dose 0.025 mg/kg, time infinity, route intravenous; conditions: in vivo
[26] = tested on: Canis familiaris; assay: Clast in beagle dog at 0.025 mg/kg, iv; type: ADME, organism-based, Canis lupus familiaris; conditions: in vivo
[27] = tested on: Canis familiaris; assay: Clast in beagle dog at 0.01 mg/kg, po; type: ADME, organism-based, Canis lupus familiaris; conditions: in vivo
[28] = Cmax in beagle dog at 0.025 mg/kg, iv; type: ADME, organism-based, Canis lupus familiaris; parameters: dose 0.025 mg/kg, route intravenous; conditions: in vivo
[29] = tested on: Canis familiaris; assay: Absolute oral bioavailability in beagle dog at 0.01 mg/kg; type: ADME, organism-based, Canis lupus familiaris; conditions: in vivo
[30] = tested on: Canis familiaris; assay: AUC(0 to infinity) in beagle dog at 0.01 mg/kg, po; type: ADME, organism-based, Canis lupus familiaris; parameters: dose 0.01 mg/kg, time infinity, route oral; conditions: in vivo
[31] = AUC(0 to time) in beagle dog at 0.01 mg/kg, po; type: ADME, organism-based, Canis lupus familiaris; conditions: in vivo
[32] = biological target: T1, CYP1A2 (Homo sapiens, UniProt P05177); assay: Inhibition of CYP1A2 (unknown origin) at 10 uM; type: ADME
T1 sequence (P05177 whole entry): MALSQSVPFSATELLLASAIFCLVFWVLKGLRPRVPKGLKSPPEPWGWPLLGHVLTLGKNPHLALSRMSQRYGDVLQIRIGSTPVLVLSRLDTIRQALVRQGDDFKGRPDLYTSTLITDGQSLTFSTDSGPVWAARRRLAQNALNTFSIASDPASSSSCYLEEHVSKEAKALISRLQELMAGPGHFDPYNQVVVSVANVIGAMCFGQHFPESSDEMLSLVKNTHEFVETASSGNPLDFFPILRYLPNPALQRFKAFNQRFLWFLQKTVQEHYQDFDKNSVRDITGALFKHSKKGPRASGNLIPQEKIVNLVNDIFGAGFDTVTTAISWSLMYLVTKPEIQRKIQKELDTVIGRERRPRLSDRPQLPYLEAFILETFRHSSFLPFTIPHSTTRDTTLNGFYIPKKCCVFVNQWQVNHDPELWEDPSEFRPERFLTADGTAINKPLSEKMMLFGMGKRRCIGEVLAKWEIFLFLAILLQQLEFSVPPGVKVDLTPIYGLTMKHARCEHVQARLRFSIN

[33] = tested on: Canis familiaris; assay: Clast in beagle dog at 0.1 mg/kg, po; type: ADME, organism-based, Canis lupus familiaris; conditions: in vivo
[34] = Cmax in beagle dog at 0.1 mg/kg, po; type: ADME, organism-based, Canis lupus familiaris; parameters: dose 0.1 mg/kg, route oral; conditions: in vivo
[35] = biological target: Voltage-gated inwardly rectifying potassium channel KCNH2 (Homo sapiens, UniProt Q12809); assay: Inhibition of human ERG by cell based assay
[36] = tested on: Mus musculus; assay: Toxicity in athymic nu/nu mouse assessed as mortality at 0.1 to 0.33 mg/kg, po qd for 28 days; type: organism-based; conditions: in vivo, 672 h
[37] = AUC (0 to t) in beagle dog at 0.1 mg/kg, po; type: ADME, organism-based, Canis lupus familiaris; conditions: in vivo
[38] = Half life in human; type: ADME, organism-based; conditions: in vivo
[39] = biological target: CYP2C19 (Homo sapiens, UniProt P33261); assay: Inhibition of CYP2C19 (unknown origin) at 10 uM; type: ADME
[40] = Plasma protein binding in human; type: ADME, cell-free; conditions: read-out: PPB (converted)
[41] = Half life in beagle dog at 0.1 mg/kg, po; type: ADME, organism-based, Canis lupus familiaris; conditions: in vivo
[42] = biological target: CYP2C9 (Homo sapiens, UniProt P11712); assay: Inhibition of CYP2C9 (unknown origin) at 10 uM; type: ADME
[43] = Absolute oral bioavailability in beagle dog at 0.1 mg/kg; type: ADME, organism-based, Canis lupus familiaris; conditions: in vivo
[44] = tested on: Mus musculus; assay: Toxicity in athymic nu/nu mouse assessed as change in body weight at 0.1 to 0.33 mg/kg, po qd for 28 days; type: organism-based; conditions: in vivo, 672 h
[45] = tested on: Rattus norvegicus; assay: as §2; type: ADME, organism-based; conditions: in vivo
[46] = tested on: Salmonella typhimurium; assay: Mutagenicity in Salmonella typhimurium at 5 mg by Ames test; type: toxicity, organism-based, Salmonella enterica subsp. enterica serovar Typhimurium; conditions: in vivo
[47] = biological target: CYP3A4 (Homo sapiens, UniProt P08684); assay: Inhibition of CYP3A4 (unknown origin) at 10 uM; type: ADME
[48] = Apparent oral clearance in beagle dog at 0.1 mg/kg, po; type: ADME, organism-based, Canis lupus familiaris; conditions: in vivo
[49] = Tmax in beagle dog at 0.1 mg/kg, po; type: ADME, organism-based, Canis lupus familiaris; conditions: in vivo
[50] = biological target: CYP2D6 (Homo sapiens, UniProt P10635); assay: Inhibition of CYP2D6 (unknown origin) at 10 uM; type: ADME
[51] = AUC (0 to infinity) in beagle dog at 0.1 mg/kg, po; type: ADME, organism-based, Canis lupus familiaris; parameters: dose 0.1 mg/kg, route oral, time infinity; conditions: in vivo

Sequence of CYP3A4 (P08684 whole entry): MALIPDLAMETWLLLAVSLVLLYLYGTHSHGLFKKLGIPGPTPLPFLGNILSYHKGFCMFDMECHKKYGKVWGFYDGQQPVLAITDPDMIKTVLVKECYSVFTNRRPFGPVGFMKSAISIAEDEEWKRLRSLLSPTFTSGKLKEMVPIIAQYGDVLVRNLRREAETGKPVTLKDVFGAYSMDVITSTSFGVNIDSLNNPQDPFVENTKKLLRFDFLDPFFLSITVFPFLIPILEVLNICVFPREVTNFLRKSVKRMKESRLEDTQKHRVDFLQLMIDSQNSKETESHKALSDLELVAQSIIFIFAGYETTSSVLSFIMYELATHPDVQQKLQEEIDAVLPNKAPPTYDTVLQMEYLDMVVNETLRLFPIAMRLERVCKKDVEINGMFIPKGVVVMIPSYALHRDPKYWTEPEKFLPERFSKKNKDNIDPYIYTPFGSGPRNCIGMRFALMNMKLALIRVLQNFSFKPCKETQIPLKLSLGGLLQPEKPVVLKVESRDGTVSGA
Sequence of Voltage-gated inwardly rectifying potassium channel KCNH2 (Q12809 whole entry): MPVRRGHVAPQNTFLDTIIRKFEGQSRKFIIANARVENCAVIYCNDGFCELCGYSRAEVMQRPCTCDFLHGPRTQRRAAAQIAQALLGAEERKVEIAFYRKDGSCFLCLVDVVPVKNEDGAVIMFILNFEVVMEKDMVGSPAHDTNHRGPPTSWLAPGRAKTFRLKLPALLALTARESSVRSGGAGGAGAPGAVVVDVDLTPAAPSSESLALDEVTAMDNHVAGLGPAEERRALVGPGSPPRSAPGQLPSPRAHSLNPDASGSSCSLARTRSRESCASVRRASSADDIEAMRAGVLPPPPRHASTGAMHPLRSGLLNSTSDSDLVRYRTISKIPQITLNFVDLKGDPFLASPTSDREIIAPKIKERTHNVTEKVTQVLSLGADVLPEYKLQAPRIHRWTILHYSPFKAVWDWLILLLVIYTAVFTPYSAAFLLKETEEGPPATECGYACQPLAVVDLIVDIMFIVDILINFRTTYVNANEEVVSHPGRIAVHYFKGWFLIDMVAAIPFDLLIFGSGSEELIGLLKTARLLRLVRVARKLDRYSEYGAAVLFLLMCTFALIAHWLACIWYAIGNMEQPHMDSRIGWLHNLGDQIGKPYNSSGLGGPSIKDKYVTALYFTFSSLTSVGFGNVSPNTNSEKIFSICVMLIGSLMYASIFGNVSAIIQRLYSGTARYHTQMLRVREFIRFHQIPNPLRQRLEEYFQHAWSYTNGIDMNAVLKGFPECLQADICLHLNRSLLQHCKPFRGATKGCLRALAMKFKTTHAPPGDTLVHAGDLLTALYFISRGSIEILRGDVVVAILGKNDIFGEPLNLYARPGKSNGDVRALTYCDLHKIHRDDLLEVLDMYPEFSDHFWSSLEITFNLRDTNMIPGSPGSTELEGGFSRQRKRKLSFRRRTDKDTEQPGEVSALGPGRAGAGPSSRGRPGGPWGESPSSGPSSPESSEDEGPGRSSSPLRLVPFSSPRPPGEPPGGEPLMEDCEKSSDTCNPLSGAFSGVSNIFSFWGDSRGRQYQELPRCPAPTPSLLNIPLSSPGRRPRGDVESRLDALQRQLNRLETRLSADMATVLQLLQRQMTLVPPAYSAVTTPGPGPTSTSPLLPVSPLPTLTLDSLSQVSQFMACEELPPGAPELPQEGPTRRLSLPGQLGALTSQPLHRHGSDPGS
Sequence of CYP2C19 (P33261 whole entry): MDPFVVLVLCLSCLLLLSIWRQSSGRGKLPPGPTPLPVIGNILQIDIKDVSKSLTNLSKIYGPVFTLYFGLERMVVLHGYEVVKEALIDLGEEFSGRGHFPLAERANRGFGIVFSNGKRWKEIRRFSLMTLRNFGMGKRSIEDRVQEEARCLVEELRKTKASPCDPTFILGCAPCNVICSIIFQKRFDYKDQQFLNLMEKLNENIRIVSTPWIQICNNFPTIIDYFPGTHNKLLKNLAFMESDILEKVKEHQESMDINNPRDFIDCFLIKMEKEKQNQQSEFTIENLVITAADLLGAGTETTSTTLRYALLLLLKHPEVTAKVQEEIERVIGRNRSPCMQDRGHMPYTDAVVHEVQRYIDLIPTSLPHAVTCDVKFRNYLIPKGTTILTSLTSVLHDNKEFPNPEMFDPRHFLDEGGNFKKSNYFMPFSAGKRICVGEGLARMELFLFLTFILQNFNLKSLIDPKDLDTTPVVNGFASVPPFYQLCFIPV
Sequence of CYP2D6 (P10635 whole entry): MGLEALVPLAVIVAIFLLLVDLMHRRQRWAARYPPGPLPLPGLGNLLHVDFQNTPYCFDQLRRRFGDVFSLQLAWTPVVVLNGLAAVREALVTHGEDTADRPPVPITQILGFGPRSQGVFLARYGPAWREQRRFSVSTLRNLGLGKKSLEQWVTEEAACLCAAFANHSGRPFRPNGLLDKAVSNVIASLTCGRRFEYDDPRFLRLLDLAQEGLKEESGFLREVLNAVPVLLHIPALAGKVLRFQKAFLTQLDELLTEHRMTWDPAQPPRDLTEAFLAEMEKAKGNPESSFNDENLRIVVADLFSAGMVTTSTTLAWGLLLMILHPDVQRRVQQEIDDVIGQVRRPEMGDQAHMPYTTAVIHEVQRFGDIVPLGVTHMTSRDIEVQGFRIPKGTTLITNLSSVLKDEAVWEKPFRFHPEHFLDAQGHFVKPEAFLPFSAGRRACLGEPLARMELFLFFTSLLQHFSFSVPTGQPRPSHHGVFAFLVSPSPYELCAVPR
Sequence of Poly [ADP-ribose] polymerase 1 (P09874 whole entry): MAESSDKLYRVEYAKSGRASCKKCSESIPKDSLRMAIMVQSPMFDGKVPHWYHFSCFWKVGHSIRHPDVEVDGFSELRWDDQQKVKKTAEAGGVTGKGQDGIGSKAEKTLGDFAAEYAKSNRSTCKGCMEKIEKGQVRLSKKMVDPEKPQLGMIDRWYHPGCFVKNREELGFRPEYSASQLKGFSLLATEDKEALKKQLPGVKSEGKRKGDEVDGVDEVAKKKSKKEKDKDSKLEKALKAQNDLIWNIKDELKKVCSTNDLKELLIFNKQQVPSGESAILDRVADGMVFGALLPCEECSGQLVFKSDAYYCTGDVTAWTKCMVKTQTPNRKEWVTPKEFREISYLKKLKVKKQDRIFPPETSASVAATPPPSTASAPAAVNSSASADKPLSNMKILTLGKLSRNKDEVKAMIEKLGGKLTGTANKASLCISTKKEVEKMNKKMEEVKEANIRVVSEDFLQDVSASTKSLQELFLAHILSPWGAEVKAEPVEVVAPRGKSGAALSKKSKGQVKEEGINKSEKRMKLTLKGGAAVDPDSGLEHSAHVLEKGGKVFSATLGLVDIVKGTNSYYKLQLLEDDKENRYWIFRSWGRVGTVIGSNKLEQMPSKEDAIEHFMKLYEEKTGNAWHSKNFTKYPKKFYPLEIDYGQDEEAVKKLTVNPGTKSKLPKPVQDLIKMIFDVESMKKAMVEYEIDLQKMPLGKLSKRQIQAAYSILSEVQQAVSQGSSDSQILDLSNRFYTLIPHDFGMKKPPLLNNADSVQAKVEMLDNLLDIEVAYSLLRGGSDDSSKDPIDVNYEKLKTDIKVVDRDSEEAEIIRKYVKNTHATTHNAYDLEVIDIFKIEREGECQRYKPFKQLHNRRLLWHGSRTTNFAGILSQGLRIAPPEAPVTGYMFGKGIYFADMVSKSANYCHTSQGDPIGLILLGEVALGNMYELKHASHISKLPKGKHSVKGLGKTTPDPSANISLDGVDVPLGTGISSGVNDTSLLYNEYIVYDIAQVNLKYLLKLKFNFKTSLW
Sequence of CYP2C9 (P11712 whole entry): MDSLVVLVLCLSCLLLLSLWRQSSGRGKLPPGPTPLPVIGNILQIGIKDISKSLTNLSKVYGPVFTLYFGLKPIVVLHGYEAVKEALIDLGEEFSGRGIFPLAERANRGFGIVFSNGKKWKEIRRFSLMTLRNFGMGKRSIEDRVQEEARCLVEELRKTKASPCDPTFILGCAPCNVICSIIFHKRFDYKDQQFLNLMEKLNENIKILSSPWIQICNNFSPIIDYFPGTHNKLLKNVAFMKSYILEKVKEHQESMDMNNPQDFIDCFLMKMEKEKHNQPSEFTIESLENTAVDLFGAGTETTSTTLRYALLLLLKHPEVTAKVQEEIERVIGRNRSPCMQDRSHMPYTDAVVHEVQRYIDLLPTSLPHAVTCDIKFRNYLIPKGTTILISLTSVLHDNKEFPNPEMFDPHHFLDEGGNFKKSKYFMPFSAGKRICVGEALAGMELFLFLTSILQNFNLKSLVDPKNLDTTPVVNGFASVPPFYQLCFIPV

O=C(c1cc(Cc2n[nH]c(=O)c3ccccc23)ccc1F)N1CCN(C(=O)C2CC2)CC1 [OLAPARIB]
GI50 [1]: 237 nM
EC50 [2]: 5830 nM
EC50 [3]: 259 nM
bioavailability [4]: 11%
Vd [5]: 0.83 L/kg
half-life [6]: 0.53 h
clearance [7]: 34.3 mL/min/kg
Cmax [8]: 437 ng/mL
Activity [9]: inactive
AUC [10]: 559 ng·h/mL
inhibition [11]: Active

Cn1ccnc1[C@H]1c2n[nH]c(=O)c3cc(F)cc(c23)N[C@@H]1c1ccc(F)cc1
GI50 [12]: 25 nM
EC50 [3]: 39 nM
F [13]: 68%
Vd [5]: 0.73 L/kg
half-life [6]: 2.1 h
EC50 [14]: 17.9 nM
IC50 [15]: 1.6 nM
Cmax [8]: 3990 ng/mL
AUC [16]: 1810 ng·h/mL

Cc1ccc(S(=O)(=O)O)cc1.Cn1ncnc1[C@H]1c2n[nH]c(=O)c3cc(F)cc(c23)N[C@@H]1c1ccc(F)cc1 [TALAZOPARIB TOSYLATE]
Cmax [17]: 68 ng/mL
Vd [18]: 4.67 L/kg
half-life [19]: 24.4 h
Vd/F [20]: 5.81 L/kg
AUC(0-t) [21]: 129 ng·h/mL
Tmax [22]: 4 h
clearance [23]: 3.3 mL/min/kg
half-life [24]: 26.7 h
AUC [25]: 135 ng·h/mL
Clast [26]: 0.182 ng/mL
Clast [27]: 0.313 ng/mL
Cmax [28]: 18.9 ng/mL
F [29]: 118.7%
AUC [30]: 611 ng·h/mL
AUC [31]: 600 ng·h/mL

Cn1ncnc1[C@H]1c2n[nH]c(=O)c3cc(F)cc(c23)N[C@@H]1c1ccc(F)cc1 [TALAZOPARIB]
inhibition at 10 µM [32]: < 12%
EC50 [2]: 310 nM
Clast [33]: 0.365 ng/mL
Cmax [34]: 72.2 ng/mL
IC50 [35]: > 100000 nM
Activity [36]: Non-toxic
GI50 [12]: 4 nM
EC50 [3]: 5 nM
AUC(0-t) [37]: 619 ng·h/mL
half-life [38]: 40 h
inhibition at 10 µM [39]: < 12%
fraction unbound [40]: 0.213
bioavailability [4]: 56%
half-life [41]: 17.9 h
inhibition at 10 µM [42]: < 12%
Vd [5]: 0.3 L/kg
bioavailability [43]: 121%
Activity [44]: Non-toxic
beta t1/2 [45]: 2.25 h
Activity [46]: Non-toxic
clearance [7]: 2 mL/min/kg
inhibition at 10 µM [47]: < 12%
CL/F [48]: 2.7 mL/min/kg
Tmax [49]: 2 h
Cmax [8]: 7950 ng/mL
inhibition at 10 µM [50]: < 12%
AUC(0-inf) [51]: 629 ng·h/mL
AUC [10]: 56100 ng·h/mL

Source: ChEMBL document CHEMBL3763037 (J Med Chem, 2016)
